Source: ChEMBL document CHEMBL1128052, “Further structure-activity-relationship studies on A/C/D-ring analogs of complement inhibitor K-76” (Bioorg Med Chem Lett, 1995)

Tests used:
[1] = Intrinsic Lytic Activity required to cause 50% hemolysis in the absence of complement; assay type: functional, Ovis aries
Homo sapiens = species: Homo sapiens; assay: Inhibitory concentration required to inhibit human complement induced hemolysis by 50%; assay type: functional, organism-based
[2] = Intrinsic Lytic Activity required to cause 50% hemolysis in the absence of complement; Not bioassayed; assay type: functional, Ovis aries

| SMILES | EC50 [1] | IC50 (Homo sapiens) | EC50 [2] |
| --- | --- | --- | --- |
| CC1=CCC([C@]2(C)Cc3c(Oc4ccccc4)cc(C(=O)O)cc3O2)CC1 (stereo partly specified) | < 200 µM | > 824 µM |  |
| CC1=CCC([C@]2(C)Cc3c(O)cc(C=O)cc3O2)CC1 (stereo partly specified) | < 280 µM | 515 µM |  |
| COc1ccc(C(=O)O)c2c1C[C@@](C)(C1CC=C(C)CC1)O2 (stereo partly specified) |  | 380 µM | Not bioassayed |
| CC1=CCC([C@]2(C)Cc3c(O)cc(C(=O)O)cc3O2)CC1 (stereo partly specified) | > 1040 µM | 730 µM |  |
| COc1ccc(C(=O)O)c2c1C[C@](C)(C1CC[C@](C)(O)[C@H](O)C1)O2 (stereo partly specified) |  | 1600 µM | Not bioassayed |
| C[C@@H]1CCC2C(C)(C)[C@H](O)[C@H](O)C[C@]2(C)[C@@]12Cc1c(O)cc(C(=O)O)c(C=O)c1O2 (stereo partly specified) | > 680 µM | 680 µM |  |
| COc1cc(C=O)cc2c1C[C@@](C)(C1CC=C(C)CC1)O2 (stereo partly specified) | > 1050 µM | > 1050 µM |  |
| CC1=CCC([C@@]2(C)Cc3c(O)ccc(C(=O)O)c3O2)CC1 (stereo partly specified) |  | 2100 µM | Not bioassayed |
| COc1ccc(C(=O)O)c2c1C[C@](C)(C1CC=C(C)CC1)O2 (stereo partly specified) |  | 680 µM | Not bioassayed |
| CC1=CCC([C@]2(C)Cc3c(Oc4ccccc4)cc(C=O)cc3O2)CC1 (stereo partly specified) | > 862 µM | > 862 µM |  |
| COc1cc(C(=O)O)cc2c1C[C@@](C)(C1CC=C(C)CC1)O2 (stereo partly specified) | 660 µM | > 1000 µM |  |
| COc1cc(C(=O)O)cc2c1CC(C)(C1CC[C@](C)(O)[C@H](O)C1)O2 (stereo partly specified) | > 892 µM | > 892 µM |  |
| CC1=CCC([C@]2(C)Cc3c(O)ccc(C(=O)O)c3O2)CC1 (stereo partly specified) |  | 2400 µM | Not bioassayed |
